Each molecule was assayed on Biomphalaria glabrata (assay: Molluscicidal activity against Biomphalaria glabrata assessed as minimum concentration required to cause mortality measured after 24 hrs).
Format: functional

SMILES | Activity [ppm]
CC1(C)CC[C@]2(C(=O)O)CC[C@]3(C)C(=CC[C@@H]4[C@@]5(C)CC[C@H](O[C@@H]6O[C@H](C(=O)O)[C@@H](O)[C@H](O)[C@H]6O)C(C)(C)[C@@H]5CC[C@]43C)[C@@H]2C1 | 2
C[C@@H]1O[C@@H](O[C@@H]2[C@@H](O)[C@H](O[C@H]3CC[C@]4(C)[C@H]5CC=C6[C@@H]7CC(C)(C)CC[C@]7(C(=O)O)CC[C@@]6(C)[C@]5(C)CC[C@H]4C3(C)C)O[C@H](C(=O)O)[C@H]2O)[C@H](O)[C@H](O)[C@H]1O | 4
CC1(C)CC[C@]2(C(=O)O)CC[C@]3(C)C(=CC[C@@H]4[C@@]5(C)CC[C@H](O[C@@H]6O[C@H](C(=O)O)[C@@H](O)[C@H](O[C@@H]7OC[C@@H](O)[C@H](O)[C@H]7O)[C@H]6O)C(C)(C)[C@@H]5CC[C@]43C)[C@@H]2C1 | 4
CC1(C)CC[C@]2(C(=O)O)CC[C@]3(C)C(=CC[C@@H]4[C@@]5(C)CC[C@H](O[C@@H]6OC[C@@H](O)[C@H](O)[C@H]6O)C(C)(C)[C@@H]5CC[C@]43C)[C@@H]2C1 | >16
CC1(C)CC[C@]2(C(=O)O)CC[C@]3(C)C(=CC[C@@H]4[C@@]5(C)CC[C@H](O)C(C)(C)[C@@H]5CC[C@]43C)[C@@H]2C1 [OLEANOLIC_ACID] | 0

— ChEMBL document CHEMBL1158286, “Molluscicidal Triterpenoid Glycosides of Dialium guineense” (1996)
